# Laboratory results: PMC11859092 (Pharmaceutics, 2025)
# What was measured:
# [1] = In vitro cytotoxicity test (MTT); format: cell-based
# Experimental: Thereafter, cell viability was determined by the 3-(4,5-dimethylthiazol-2-yl)-2,5-diphenyl tetrazolium bromide (MTT, Sigma-Aldrich, St. Louis, MO, USA) method at a final concentration 0.5 mg/mL. After 2 h of incubation at 37 °C, the supernatants were removed, ethanol was added to each well to solubilize the formazan crystals and absorbance was measured in a multi-mode microplate reader (FLUOstar® Omega, Labtech, Eschelbronn, Germany) at 595 nm. […] All determinations were performed in triplicate.
# [2] = cited from earlier work
# [3] = cited from earlier work; remark: listed apart in the source
# [4] = EFV solubilization in Soluplus nanomicelle dispersions (apparent aqueous solubility, RP-HPLC); conditions: distilled water, 25 °C
# YFV = experiment: microbe, parasite or virus in culture; format: cell-based, YFV vaccine strain YF-17D; conditions: Yellow fever virus
# DENV-2 = experiment: microbe, parasite or virus in culture; format: cell-based, DENV type-2 (DENV-2) strain NGC; conditions: Dengue virus
# ZIKV = experiment: Virus yield inhibition assay (PFU); format: cell-based, ZIKV INEVH-116141 strain; conditions: Zika virus, m.o.i. 0.1, 48 h p.i.
compound,measurement,setting,value
"O=C1Nc2ccc(Cl)cc2[C@@](C#CC2CC2)(C(F)(F)F)O1 [EFV, Efavirenz]",CC50 at 48 h,"[1]; African green monkey, Vero",56.8 µg/mL
same,CC50 at 48 h,"[1]; human, A549, 48 h",126 µg/mL
same,biopharmaceutical classification system (BCS) class,[2],class II
same,intrinsic aqueous solubility,[2],4 µg/mL
same,Cmax in humans,[3],4000 ng/mL
same,PM molar partition coefficient (micelle/water),[4]; Soluplus 1% w/v,5368
same,P partition coefficient (micelle/water),[4]; Soluplus 3% w/v,1327
same,PM molar partition coefficient (micelle/water),[4]; Soluplus 3% w/v,5220
same,P partition coefficient (micelle/water),[4]; Soluplus 5% w/v,2247
same,PM molar partition coefficient (micelle/water),[4]; Soluplus 5% w/v,5303
same,P partition coefficient (micelle/water),[4]; Soluplus 7% w/v,3667
same,PM molar partition coefficient (micelle/water),[4]; Soluplus 7% w/v,6181
same,P partition coefficient (micelle/water),[4]; Soluplus 10% w/v,4802
same,PM molar partition coefficient (micelle/water),[4]; Soluplus 10% w/v,5666
same,EC50,"YFV; A549, 48 h",12.6 µg/mL
same,EC50,"YFV; Vero, 48 h",1.48 µg/mL
same,EC50,"DENV-2; DENV2, A549, 48 h",2.69 µg/mL
same,EC50,"DENV-2; DENV2, Vero, 48 h",8.17 µg/mL
same,EC50,ZIKV; ZIKV in A549 cells,4.98 µg/mL
same,EC50,ZIKV; ZIKV in Vero cells,2.41 µg/mL
